Reference: PubChem BioAssay AID256 (DTP/NCI, 2004)
Toxic doses and inconclusive results are not listed. The calls were made as follows: active = survival T/C of 150% or more; inactive = T/C below 125% in these data.

System: CD2F1 mice, L1210 leukemia ip, survival T/C
Experiment: NCI In Vivo Anticancer Drug Screen. Data for tumor model L1210 Leukemia (intraperitoneal) in CD2F1 (CDF1) mice
Details: higher = longer survival
Method in brief: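 Activity against a transplanted murine tumor was judged by comparing the compound group with a vehicle group. The outcome in the treated animals was divided by that in the controls.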

[1] = endpoint: mean survival time, dose: 100.0 mg/kg/injection, schedule: Q04DX003 (ip), vehicle: saline
[2] = endpoint: mean survival time, dose: 200.0 mg/kg/injection, schedule: Q04DX003 (ip), vehicle: saline
[3] = endpoint: mean survival time, dose: 400.0 mg/kg/injection, schedule: Q04DX003 (ip), vehicle: saline
[4] = endpoint: mean survival time, dose: 100.0 mg/kg/injection, schedule: Q01DX009 (ip), vehicle: saline with Tween-80
[5] = endpoint: mean survival time, dose: 200.0 mg/kg/injection, schedule: Q01DX009 (ip), vehicle: saline with Tween-80
[6] = endpoint: mean survival time, dose: 400.0 mg/kg/injection, schedule: Q01DX009 (ip), vehicle: saline with Tween-80
[7] = endpoint: mean survival time, dose: 12.5 mg/kg/injection, schedule: Q01DX005 (ip), vehicle: water
[8] = endpoint: mean survival time, dose: 25.0 mg/kg/injection, schedule: Q01DX005 (ip), vehicle: water
[9] = endpoint: mean survival time, dose: 50.0 mg/kg/injection, schedule: Q01DX005 (ip), vehicle: water
[10] = endpoint: mean survival time, dose: 100.0 mg/kg/injection, schedule: Q01DX005 (ip), vehicle: water
[11] = endpoint: mean survival time, dose: 200.0 mg/kg/injection, schedule: Q01DX005 (ip), vehicle: water
[12] = endpoint: mean survival time, dose: 100.0 mg/kg/injection, schedule: Q04DX003 (ip), vehicle: saline with Tween-80
[13] = endpoint: mean survival time, dose: 200.0 mg/kg/injection, schedule: Q04DX003 (ip), vehicle: saline with Tween-80

Measured: T/C

CCC(C)CC(=O)O (centres undefined)
inactive: endpoint: mean survival time, dose: 100.0 mg/kg/injection, schedule: Q01DX009 (ip), vehicle: saline 95 % of control | [1] 102 % of control | endpoint: mean survival time, dose: 200.0 mg/kg/injection, schedule: Q01DX009 (ip), vehicle: saline 98 % of control | [2] 102 % of control | endpoint: mean survival time, dose: 400.0 mg/kg/injection, schedule: Q01DX009 (ip), vehicle: saline 96 % of control | [3] 97 % of control

Cc1ccc(Nc2ncnc3c2ncn3C2OC(CO)C(O)C2O)cc1 (centres undefined)
inactive: endpoint: mean survival time, dose: 12.5 mg/kg/injection, schedule: Q01DX005 (ip), vehicle: distilled water + Tween-80 94 % of control | endpoint: mean survival time, dose: 25.0 mg/kg/injection, schedule: Q01DX005 (ip), vehicle: distilled water + Tween-80 94 % of control | endpoint: mean survival time, dose: 50.0 mg/kg/injection, schedule: Q01DX005 (ip), vehicle: distilled water + Tween-80 94 % of control | endpoint: mean survival time, dose: 100.0 mg/kg/injection, schedule: Q01DX005 (ip), vehicle: distilled water + Tween-80 96 % of control | endpoint: mean survival time, dose: 200.0 mg/kg/injection, schedule: Q01DX005 (ip), vehicle: distilled water + Tween-80 94 % of control

Cc1nc(N)n[nH]1
inactive: [4] 92 % of control | [1] 102 % of control | [5] 97 % of control | [2] 100 % of control | [6] 88 % of control | [3] 96 % of control

Cc1cn(C2CC3OP(=O)(N(C)C)OCC3O2)c(=O)[nH]c1=O (centres undefined)
inactive: [7] 105 % of control | [8] 100 % of control | [9] 109 % of control | [10] 97 % of control | [11] 103 % of control

O=c1cc[nH]c(=O)o1
inactive: endpoint: mean survival time, dose: 42.0 mg/kg/injection, schedule: Q01DX009 (ip), vehicle: water 122 % of control | [12] 114 % of control | [13] 92 % of control | endpoint: median survival time, dose: 63.0 mg/kg/injection, schedule: Q01DX009 (ip), vehicle: water 87 % of control

CCOC(=O)C(C)(C)CO
inactive: endpoint: mean survival time, dose: 100.0 mg/kg/injection, schedule: Q01DX009 (ip), vehicle: saline sonified 93 % of control | endpoint: mean survival time, dose: 200.0 mg/kg/injection, schedule: Q01DX009 (ip), vehicle: saline sonified 101 % of control | endpoint: mean survival time, dose: 400.0 mg/kg/injection, schedule: Q01DX009 (ip), vehicle: saline sonified 103 % of control | endpoint: mean survival time, dose: 800.0 mg/kg/injection, schedule: Q01DX009 (ip), vehicle: saline sonified 90 % of control

ClCCCN1CCN(CCCCl)CC1
inactive: endpoint: mean survival time, dose: 6.25 mg/kg/injection, schedule: Q01DX009 (ip), vehicle: distilled water + alcohol 96 % of control | endpoint: mean survival time, dose: 12.5 mg/kg/injection, schedule: Q01DX009 (ip), vehicle: distilled water + alcohol 95 % of control | endpoint: mean survival time, dose: 25.0 mg/kg/injection, schedule: Q01DX009 (ip), vehicle: distilled water + alcohol 102 % of control | endpoint: mean survival time, dose: 50.0 mg/kg/injection, schedule: Q01DX009 (ip), vehicle: distilled water + alcohol 103 % of control | endpoint: mean survival time, dose: 100.0 mg/kg/injection, schedule: Q01DX009 (ip), vehicle: distilled water + alcohol 108 % of control

Cc1ccc2c(c1)Sc1ccc3ccccc3c1N2
inactive: [4] 95 % of control | endpoint: mean survival time, dose: 100.0 mg/kg/injection, schedule: Q04DX003 (ip), vehicle: Klucel (hydroxypropylcellulose) (HPC) 96 % of control | [5] 97 % of control | endpoint: mean survival time, dose: 200.0 mg/kg/injection, schedule: Q04DX003 (ip), vehicle: Klucel (hydroxypropylcellulose) (HPC) 95 % of control | [6] 97 % of control | endpoint: mean survival time, dose: 400.0 mg/kg/injection, schedule: Q04DX003 (ip), vehicle: Klucel (hydroxypropylcellulose) (HPC) 98 % of control

CC1(C)OC2C(/C=N/O)OC(n3ccc(=O)[nH]c3=O)C2O1 (centres undefined)
inactive: endpoint: median survival time, dose: 23.13 mg/kg/injection, schedule: Q01DX005 (ip), vehicle: Klucel (hydroxypropylcellulose) (HPC) 107 % of control | endpoint: median survival time, dose: 46.25 mg/kg/injection, schedule: Q01DX005 (ip), vehicle: Klucel (hydroxypropylcellulose) (HPC) 102 % of control | endpoint: median survival time, dose: 92.5 mg/kg/injection, schedule: Q01DX005 (ip), vehicle: Klucel (hydroxypropylcellulose) (HPC) 102 % of control | endpoint: median survival time, dose: 185.0 mg/kg/injection, schedule: Q01DX005 (ip), vehicle: Klucel (hydroxypropylcellulose) (HPC) 108 % of control

O=C(O)C(O)(c1ccccc1)C1CCCC1 (centres undefined)
inactive: [5] 109 % of control | [6] 112 % of control

CN=C([Se])NC
inactive: endpoint: mean survival time, dose: 3.13 mg/kg/injection, schedule: Q01DX005 (ip), vehicle: saline with Tween-80 108 % of control | endpoint: mean survival time, dose: 6.25 mg/kg/injection, schedule: Q01DX005 (ip), vehicle: saline with Tween-80 103 % of control | endpoint: mean survival time, dose: 12.5 mg/kg/injection, schedule: Q01DX005 (ip), vehicle: saline with Tween-80 116 % of control | endpoint: mean survival time, dose: 12.5 mg/kg/injection, schedule: Q04DX002 (ip), vehicle: saline with Tween-80 102 % of control | endpoint: mean survival time, dose: 25.0 mg/kg/injection, schedule: Q04DX002 (ip), vehicle: saline with Tween-80 104 % of control

O=C(O)CCN1CCS(=O)(=O)C1=S
inactive: endpoint: mean survival time, dose: 75.0 mg/kg/injection, schedule: Q01DX001 (ip), vehicle: other 101 % of control | endpoint: mean survival time, dose: 150.0 mg/kg/injection, schedule: Q01DX001 (ip), vehicle: other 95 % of control | endpoint: mean survival time, dose: 300.0 mg/kg/injection, schedule: Q01DX001 (ip), vehicle: other 104 % of control

O=C(Nc1ccccc1C(F)(F)F)c1cccc(Cl)c1
inactive: endpoint: mean survival time, dose: 100.0 mg/kg/injection, schedule: Q01DX009 (ip), vehicle: saline + alcohol 90 % of control | endpoint: mean survival time, dose: 100.0 mg/kg/injection, schedule: Q04DX003 (ip), vehicle: saline + alcohol 97 % of control | endpoint: mean survival time, dose: 200.0 mg/kg/injection, schedule: Q01DX009 (ip), vehicle: saline + alcohol 93 % of control | endpoint: mean survival time, dose: 200.0 mg/kg/injection, schedule: Q04DX003 (ip), vehicle: saline + alcohol 100 % of control | endpoint: mean survival time, dose: 400.0 mg/kg/injection, schedule: Q01DX009 (ip), vehicle: saline + alcohol 96 % of control | endpoint: mean survival time, dose: 400.0 mg/kg/injection, schedule: Q04DX003 (ip), vehicle: saline + alcohol 95 % of control

O=S1(=O)CCC(C2CCCCC2)C1 (centres undefined)
inactive: endpoint: mean survival time, dose: 100.0 mg/kg/injection, schedule: Q01DX001 (ip), vehicle: saline 95 % of control | endpoint: mean survival time, dose: 200.0 mg/kg/injection, schedule: Q01DX001 (ip), vehicle: saline 98 % of control | endpoint: mean survival time, dose: 400.0 mg/kg/injection, schedule: Q01DX001 (ip), vehicle: saline 106 % of control

O=C1NC(CN2CCC(O)CC2)C(=O)NC1CN1CCC(O)CC1 (centres undefined)
inactive: endpoint: mean survival time, dose: 3.13 mg/kg/injection, schedule: Q01DX009 (ip), vehicle: water 97 % of control | endpoint: mean survival time, dose: 6.25 mg/kg/injection, schedule: Q01DX009 (ip), vehicle: water 95 % of control | endpoint: mean survival time, dose: 12.5 mg/kg/injection, schedule: Q01DX009 (ip), vehicle: water 97 % of control | endpoint: mean survival time, dose: 25.0 mg/kg/injection, schedule: Q01DX009 (ip), vehicle: water 100 % of control | endpoint: mean survival time, dose: 50.0 mg/kg/injection, schedule: Q01DX009 (ip), vehicle: water 100 % of control | endpoint: mean survival time, dose: 100.0 mg/kg/injection, schedule: Q01DX009 (ip), vehicle: water 108 % of control

Cc1c(N)cc([N+](=O)[O-])c(C)c1[N+](=O)[O-]
inactive: endpoint: mean survival time, dose: 50.0 mg/kg/injection, schedule: Q01DX009 (ip), vehicle: saline with Tween-80 110 % of control | [4] 104 % of control | [12] 98 % of control | [5] 117 % of control | [13] 98 % of control

N=S(=O)(c1ccccc1)c1ccccc1
inactive: endpoint: mean survival time, dose: 100.0 mg/kg/injection, schedule: Q01DX001 (ip), vehicle: saline with Tween-80 98 % of control | endpoint: mean survival time, dose: 100.0 mg/kg/injection, schedule: Q04DX002 (ip), vehicle: saline with Tween-80 110 % of control | endpoint: mean survival time, dose: 200.0 mg/kg/injection, schedule: Q01DX001 (ip), vehicle: saline with Tween-80 94 % of control | endpoint: mean survival time, dose: 200.0 mg/kg/injection, schedule: Q04DX002 (ip), vehicle: saline with Tween-80 93 % of control | endpoint: mean survival time, dose: 400.0 mg/kg/injection, schedule: Q01DX001 (ip), vehicle: saline with Tween-80 107 % of control

Nc1ncnc2c1nc([Se])n2C1OC(CO)C(O)C1O (centres undefined)
inactive: [7] 100 % of control | [8] 97 % of control | [9] 100 % of control | [10] 95 % of control | [11] 90 % of control

O=[N+]([O-])c1ccc(N2CCOCC2)c2c1no[n+]2[O-]
inactive: endpoint: median survival time, dose: 12.5 mg/kg/injection, schedule: Q01DX009 (ip), vehicle: saline with Tween-80 117 % of control | endpoint: median survival time, dose: 25.0 mg/kg/injection, schedule: Q01DX009 (ip), vehicle: saline with Tween-80 112 % of control | endpoint: median survival time, dose: 50.0 mg/kg/injection, schedule: Q01DX009 (ip), vehicle: saline with Tween-80 108 % of control | endpoint: median survival time, dose: 100.0 mg/kg/injection, schedule: Q01DX009 (ip), vehicle: saline with Tween-80 91 % of control
